Data from publication PMC7216583 (Parasites & Vectors, 2020).
Where a name gives a salt, the structure may show the parent alone. Read-outs that look alike come from different tables or passages of the source.

Legend:
[1] = tested on: Toxoplasma gondii RH-2F tachyzoites; experiment: microbe, parasite or virus in culture; conditions: 72 h
[2] = tested on: Abl; set-up: method as in vendor brief description; conditions: ref vendor brief description; read-out: IC50 Abl; cited from earlier work
[3] = tested on: VEGFR1; set-up: method as in vendor brief description; conditions: ref vendor brief description; cited from earlier work
[4] = in vitro; conditions: human, Host viability (%) mean
[5] = tested on: Src; set-up: method as in vendor brief description; conditions: ref vendor brief description; cited from earlier work
[6] = tested on: CA IX; set-up: method as in vendor brief description; conditions: ref vendor brief description; cited from earlier work
[7] = tested on: CA XII; set-up: method as in vendor brief description; conditions: ref vendor brief description; cited from earlier work
[8] = target: V2 receptor; set-up: method as in vendor brief description; conditions: ref vendor brief description; cited from earlier work
[9] = target: V1 receptor; set-up: method as in vendor brief description; conditions: ref vendor brief description; cited from earlier work
[10] = tested on: Mdm2; set-up: method as in library vendor description; conditions: ref library vendor description; cited from earlier work
[11] = tested on: GSK-3α; set-up: method as in vendor brief description; conditions: ref vendor brief description; cited from earlier work
[12] = target: P2Y6 receptor; conditions: read-out: IC50 P2Y6 receptor; ref vendor brief description; cited from earlier work
[13] = tested on: CETP; set-up: method as in vendor brief description; conditions: ref vendor brief description; cited from earlier work
[14] = tested on: Cathepsin B; set-up: method as in vendor brief description; conditions: ref vendor brief description; cited from earlier work
[15] = tested on: Cathepsin L2; set-up: method as in vendor brief description; conditions: ref vendor brief description; cited from earlier work
[16] = tested on: Cathepsin L; set-up: method as in vendor brief description; conditions: ref vendor brief description; cited from earlier work
[17] = tested on: Cathepsin S; set-up: method as in vendor brief description; conditions: ref vendor brief description; cited from earlier work
[18] = tested on: Cathepsin K; set-up: method as in vendor brief description; conditions: ref vendor brief description; cited from earlier work
[19] = tested on: proteasome; set-up: method as in vendor brief description; conditions: ref vendor brief description; cited from earlier work
[20] = target: LPA3; set-up: method as in library vendor description; conditions: ref library vendor description; cited from earlier work
[21] = target: LPA1; set-up: method as in library vendor description; conditions: ref library vendor description; cited from earlier work
[22] = target: LPA3; set-up: method as in vendor brief description; conditions: ref vendor brief description; read-out: Ki LPA3-induced inositol phosphate production; cited from earlier work
[23] = target: LPA2; set-up: method as in library vendor description; conditions: ref library vendor description; cited from earlier work
[24] = target: LPA1; set-up: method as in vendor brief description; conditions: ref vendor brief description; read-out: Ki LPA1-induced inositol phosphate production; cited from earlier work
[25] = target: matriptase; set-up: method as in vendor brief description; conditions: ref vendor brief description; cited from earlier work
[26] = tested on: human neutrophil elastase; set-up: method as in vendor brief description; conditions: ref vendor brief description; cited from earlier work
[27] = tested on: NOD1; set-up: method as in vendor brief description; conditions: ref vendor brief description; cited from earlier work
[28] = target: 5-HT4b; set-up: method as in vendor brief description; conditions: ref vendor brief description; cited from earlier work
[29] = target: 5-HT4a; set-up: method as in vendor brief description; conditions: ref vendor brief description; cited from earlier work
[30] = tested on: ChK2; set-up: method as in vendor brief description; conditions: ref vendor brief description; cited from earlier work
[31] = tested on: Yes; set-up: method as in vendor brief description; conditions: ref vendor brief description; cited from earlier work
[32] = tested on: VEGFR-2; set-up: method as in vendor brief description; conditions: ref vendor brief description; cited from earlier work
[33] = tested on: Fms; set-up: method as in vendor brief description; conditions: ref vendor brief description; cited from earlier work
[34] = tested on: mGlu4; set-up: method as in vendor brief description; conditions: ref vendor brief description; cited from earlier work
[35] = tested on: HER2; set-up: method as in library vendor description; conditions: ref library vendor description; cited from earlier work
[36] = tested on: HER1; set-up: method as in library vendor description; conditions: ref library vendor description; cited from earlier work
[37] = tested on: CYP3A4 (P450); set-up: method as in vendor brief description; conditions: ref vendor brief description; cited from earlier work
[38] = tested on: IKK-2; set-up: method as in vendor brief description; conditions: ref vendor brief description; cited from earlier work
[39] = tested on: IKK complex; set-up: method as in vendor brief description; conditions: ref vendor brief description; cited from earlier work
[40] = tested on: IKK-1; set-up: method as in vendor brief description; conditions: ref vendor brief description; cited from earlier work
[41] = target: HIF-1α prolyl hydroxylase-2 (PHD2); set-up: method as in vendor brief description; conditions: ref vendor brief description; cited from earlier work
[42] = target: HIV reverse transcriptase; set-up: method as in vendor brief description; conditions: ref vendor brief description; cited from earlier work
[43] = tested on: AhR; conditions: cited from earlier work
[44] = tested on: RGS4; set-up: method as in vendor brief description; conditions: ref vendor brief description; cited from earlier work
[45] = tested on: PARP2; set-up: method as in library vendor description; conditions: ref library vendor description; cited from earlier work
[46] = target: mGlu5 receptor; set-up: method as in vendor brief description; conditions: ref vendor brief description; cited from earlier work
[47] = tested on: GluR1 and GluR3; set-up: method as in vendor brief description; conditions: ref vendor brief description; cited from earlier work
[48] = tested on: FAAH; set-up: method as in vendor brief description; conditions: rat; ref vendor brief description; cited from earlier work
[49] = tested on: FAAH; set-up: method as in vendor brief description; conditions: human; ref vendor brief description; cited from earlier work
[50] = read-out: Parasite inhibition (%) mean, preliminary screen of compound library, mean
[51] = read-out: Parasite inhibition (%) mean, preliminary screen, mean

COc1cc2ncnc(Nc3ccc(Cl)cc3F)c2cc1OC [ZM 306416]
inhibition of growth at 5 µM [1, 50]: 70.2%
IC50 [2]: 1300 nM
viability at 72 h ([4]; preliminary screen of compound library, mean): 76.6%

NS(=O)(=O)c1ccc(NC(=O)Nc2ccc(F)cc2)cc1 [U-104]
inhibition of growth at 5 µM [1, 50]: 5%

Cc1ccccc1C(=O)Nc1ccc(C(=O)N2CCCC(N(C)C)c3ccccc32)cc1 (stereo not drawn) [Mozavaptan]
IC50 [8]: 14 nM
inhibition of growth at 5 µM [1, 50]: 3.1%
IC50 [9]: 1200 nM

COc1ccc(C2=N[C@@H](c3ccc(Cl)cc3)[C@@H](c3ccc(Cl)cc3)N2C(=O)N2CCNC(=O)C2)c(OC(C)C)c1 [Nutlin-3]
inhibition of growth at 5 µM [1, 51]: -1.5%

Cc1c[nH]c(-c2cnc(NCCNc3ccc(C#N)cn3)nc2-c2ccc(Cl)cc2Cl)n1 [CHIR-99021 (CT99021) HCl]
inhibition of growth at 5 µM [1, 50]: 43.9%
IC50 [11]: 10 nM

S=C=Nc1cccc(NC(=S)NCCCCNC(=S)Nc2cccc(N=C=S)c2)c1 [MRS 2578]
inhibition of growth at 5 µM [1, 50]: 0.2%
IC50 [12]: 37 nM

Cc1cc(C)c2c(c1)[C@@H](N(Cc1cc(C(F)(F)F)cc(C(F)(F)F)c1)c1nnn(C)n1)CCCN2C[C@H]1CC[C@H](C(=O)O)CC1 [Evacetrapib (LY2484595)]
inhibition of growth at 5 µM [1, 50]: 22.6%
IC50 [13]: 5.5 nM

Cn1nc(C(C)(C)C)cc1C(=O)N[C@@H](Cc1cccc(Cl)c1)C(=O)NCC#N [Cathepsin Inhibitor 1]
pIC50 Cathepsin B [14]: 5.2
inhibition of growth at 5 µM [1, 50]: 21.5%
pIC50 Cathepsin L2 [15]: 6.7
pIC50 Cathepsin L [16]: 7.9
pIC50 Cathepsin S [17]: 6.0
pIC50 Cathepsin K [18]: 5.5

CC(C)C[C@H](NC(=O)[C@H](CCc1ccccc1)NC(=O)CN1CCOCC1)C(=O)N[C@@H](Cc1ccccc1)C(=O)N[C@@H](CC(C)C)C(=O)[C@@]1(C)CO1 [Carfilzomib (PR-171)]
inhibition of growth at 5 µM [1, 50]: -3.5%
IC50 [19]: < 5 nM

Cc1noc(-c2ccc(CSCCC(=O)O)cc2)c1NC(=O)OC(C)c1ccccc1Cl (stereo not drawn) [Ki16425]
inhibition of growth at 5 µM [1, 51]: -25.5%
Ki [20]: 930 nM
Ki [21]: 340 nM
Ki [22]: 930 nM
Ki [23]: 6500 nM
Ki [24]: 340 nM

CN(C)C(=O)COC(=O)Cc1ccc(OC(=O)c2ccc(NC(=N)N)cc2)cc1 [Camostat Mesilate (FOY-305)]
IC50 [25]: 500 nM
IC50 [26]: 200 nM
inhibition of growth at 5 µM [1, 50]: 2.5%

Cc1ccc(S(=O)(=O)n2c(N)nc3ccccc32)cc1 [ML130]
inhibition of growth at 5 µM [1, 50]: 3.3%
IC50 [27]: 560 nM

COCCCN1CCC(NC(=O)c2cc(Cl)c(N)c3c2OCC3)CC1 [Prucalopride]
inhibition of growth at 5 µM [1, 50]: -7.6%
Ki [28]: 8 nM
Ki [29]: 2.5 nM

Cn1cc(-c2[nH]c3cc(NC(=O)[C@H](N)C4CCCCC4)cc4c3c2C=NNC4=O)cn1 [PF 477736]
inhibition of growth at 5 µM [1, 50]: -0.5%
IC50 [30]: 47 nM
IC50 [31]: 14 nM
IC50 [32]: 8 nM
IC50 [33]: 10 nM

O=C(Nc1cccc(Cl)c1)c1ccccn1 [VU 0364770]
inhibition of growth at 5 µM [1, 50]: 1.8%
EC50 [34]: 1100 nM

Cc1c(NC(=O)OC[C@@H]2COCCN2)cn2ncnc(Nc3ccc4c(cnn4Cc4cccc(F)c4)c3)c12 [BMS-599626 (AC480)]
inhibition of growth at 5 µM [1, 51]: 39.6%
IC50 [35]: 30 nM
IC50 [36]: 20 nM

Cc1ccc(-c2c(-c3nn(C)c4ncnc(N5CC[C@H](N6CCCCC6)C5)c34)cnn2C)cc1 [PF-4981517]
inhibition of growth at 5 µM [1, 50]: -8.9%
IC50 [37]: 30 nM

O=C(c1ccc(Nc2nccc(-c3cc4ccccc4s3)n2)cc1)N1CCC(N2CCCC2)CC1 [IKK-16]
IC50 [38]: 40 nM
inhibition of growth at 5 µM [1, 50]: 99.8%
viability at 72 h [4]: 10.7%
IC50 [39]: 70 nM
IC50 [40]: 200 nM

O=C(O)CNC(=O)c1c(O)c2ccccc2n(Cc2ccccc2)c1=O [IOX2]
inhibition of growth at 5 µM [1, 50]: 32.8%
IC50 [41]: 21 nM

Cc1cc(C)c(Nc2ccnc(Nc3ccc(C#N)cc3)n2)c(C)c1 [Dapivirine]
inhibition of growth at 5 µM [1, 50]: 0.8%
IC50 [42]: 24 nM

CC(C)n1cnc2c(NCCc3ccc(O)cc3)nc(-c3csc4ccccc34)nc21 [StemRegenin 1]
IC50 [43]: 127 nM
inhibition of growth at 5 µM [1, 50]: 0.2%

Cc1ccc(-n2sc(=O)n(Cc3ccc(F)cc3)c2=O)cc1 [CCG 50014]
inhibition of growth at 5 µM [1, 50]: 1.4%
IC50 [44]: 30 nM

O=C(c1cc(Cc2n[nH]c(=O)c3ccccc23)ccc1F)N1CCN(C(=O)C2CC2)CC1 [Olaparib (AZD2281)]
inhibition of growth at 5 µM ([1]; read-out: Parasite inhibition (%) mean): 28.2%
IC50 [45]: 1 nM

Cc1nc(C#Cc2ccnc(Cl)c2)c(C)n1-c1ccc(OC(F)(F)F)cc1 [CTEP]
inhibition of growth at 5 µM [1, 50]: 2.4%
IC50 [46]: 2.2 nM

NCCCCCNCC12CC3CC(CC(C3)C1)C2 [IEM 1754 dihydrobroMide]
inhibition of growth at 5 µM [1, 50]: 15.8%
IC50 [47]: 6000 nM

O=C(Nc1ccccc1)N1CCN(c2nc(-c3ccccc3)ns2)CC1 [JNJ 1661010]
IC50 [48]: 10 nM
inhibition of growth at 5 µM [1, 50]: 10.5%
IC50 [49]: 12 nM
